# Experimental data as given in US4024277A, “Phosphoro-aminosulfenyl derivatives of benzofuran carbamates” (priority 1975, dated 1977).
# Columns and labels:
# confused flour beetle [1] = test: Initial insecticidal activity, confused flour beetle; assay type: in vivo, Tribolium confusum Jacquelin duVal; conditions: Tribolium confusum, 48-hour exposure, read-out: % Kill, Confused Flour Beetle
# Excerpt: (§1) a. Initial Insecticidal Activity
# (§2) In this test, a candidate insecticide, in solution, is applied to either infested or uninfested plants or containers by spraying or dipping. (The preferred test procedure varies with insect species. The dipping method is better than the spraying method, and vice versa, for certain species of insects. Also some species are better adapted to the test by infesting after the chemical treatment rather than before.) Once the tests have been established, a 48-hour exposure period is observed before reading the tests. Insect species included in these tests are Mexican bean beetle (Epilachna varivestis Mulsant), pea aphid [Acyrthosiphon pisum (Harris)], southern armyworm [Spodoptera eridania (Cramer)], twospotted spider mite (Tetranychus urticae Koch), large milkweed bug [Oncopeltus fasciatus (Dallas)], plum curculio [Conotrachelus nenuphar (Herbst)], confused flour beetle (Tribolium confusum Jacquelin duVal) and granary weevil [Sitophilus granarius (Linnaeus)]. Test results are set forth in Table I. A control sample, comprising the solution without the candidate insecticide, is also included.
# Mexican bean beetle [2] = test: Systemic insecticidal activity (soil/water), Mexican bean beetle; assay type: in vivo, Epilachna varivestis Mulsant; conditions: Epilachna varivestis, 48-hour exposure, read-out: % Kill, Mexican Bean Beetle
# Method: (§3) c. Systemic Insecticidal Acitivity (Soil/Water)
# (§4) In this test, a candidate insecticide, in solution, is added to the soil of either uninfested pinto bean seedlings (Phaseolus vulgaris) or uninfested broad bean seedlings (Vicia faba var. Windsor). The plant species used depend on the insect species in the test. Usually, a 72-hour translocation period before infestation is required, followed by a 48-hour exposure period, before evaluation of the tests. The insect species used in the systemic tests are Mexican bean beetle, southern armyworm, pea aphid, and twospotted spider mite.
# German cockroaches = test: Level II topical test, German cockroaches; assay type: in vivo, Blattella germanica (Linnaeus); conditions: GC (male), one microgram topically per insect; for mortality at 0.001 mg: Blattella germanica, topical, read-out: % Kill; for % Knockdown: 30 minutes
# Method: (§5) e. Insecticidal Activity Against House Flies and German Cockroaches
# In a Level II test the compounds of this invention were tested for insecticidal activity against female house flies (resistant) and male German cockroaches. Ten insects were anesthetized with carbon dioxide and placed in a container for about 2 hours, during which time the insects recovered to normal activity. The container confining the insects is fitted with a plunger which is used to force the insects against a nylon mesh at one end of the container. One microliter of an acetone solution containing one microgram of the candidate insecticide was applied topically to each insect. The plunger was withdrawn and the insects were allowed to move freely about the container. Knockdown counts were recorded 10 minutes after treatment of house flies and 30 minutes after treatment of cockroaches.
# confused flour beetle [3] = test: Seven-day residual insecticidal activity, confused flour beetle; assay type: in vivo, Tribolium confusum Jacquelin duVal; conditions: Tribolium confusum, 48-hour exposure, read-out: % Kill, Confused Flour Beetle
# Excerpt: (§6) b. Seven-Day Residual Insecticidal Activity
# (§7) In this test, a candidate insecticide, in solution, is applied to uninfested plants or containers by dipping or spraying. A seven-day holding period is necessary before infestation. A 48-hour exposure period is observed before evaluation of the tests. The insect species used in this type of test are the same as those listed under initial activity.
# twospotted spider mite [4] = test: Ovicidal activity against the twospotted spider mite; assay type: in vivo, Tetranychus urticae Koch; conditions: Tetranychus urticae, eggs, 7 to 10 days, read-out: % Kill (ovicidal)
# Method: d. Ovicidal Activity Against the Twospotted Spider Mite
# In this test, Pinto bean seedlings are infested with female twospotted spider mites; about 3-4 hours are allowed for egg deposition. Plants are then dipped in TEPP (tetraethylpyrophosphate-commercial emulsifiable concentrate (EC)) solution containing 936 ppm of active ingredient. TEPP kills motile forms on the leaf and promptly degrades without effecting the egg stage. Two to three hours after TEPP treatment the plants are again dipped -- this time into a candidate insecticide solution. The test plants are maintained for 7 to 10 days. Termination of exposure is determined by the time required to attain complete hatch in the untreated check.
# Mexican bean beetle [5] = test: Initial insecticidal activity, Mexican bean beetle; assay type: in vivo, Epilachna varivestis Mulsant; conditions: Epilachna varivestis, 48-hour exposure, read-out: % Kill, Mexican Bean Beetle
# Excerpt: as §1, §2
# pea aphid [6] = test: Seven-day residual insecticidal activity, pea aphid; assay type: in vivo, Acyrthosiphon pisum (Harris); conditions: Acyrthosiphon pisum, 48-hour exposure, read-out: % Kill, Pea Aphid
# Excerpt: as §6, §7
# plum curculio [7] = test: Seven-day residual insecticidal activity, plum curculio; assay type: in vivo, Conotrachelus nenuphar (Herbst); conditions: Conotrachelus nenuphar, 48-hour exposure, read-out: % Kill, Plum Curculio
# Excerpt: as §6, §7
# pea aphid [8] = test: Initial insecticidal activity, pea aphid; assay type: in vivo, Acyrthosiphon pisum (Harris); conditions: Acyrthosiphon pisum, 48-hour exposure, read-out: % Kill, Pea Aphid
# Excerpt: as §1, §2
# pea aphid [9] = test: Systemic insecticidal activity (soil/water), pea aphid; assay type: in vivo, Acyrthosiphon pisum (Harris); conditions: Acyrthosiphon pisum, 48-hour exposure, read-out: % Kill, Pea Aphid
# Method: as §3, §4
# Mexican bean beetle [10] = test: Seven-day residual insecticidal activity, Mexican bean beetle; assay type: in vivo, Epilachna varivestis Mulsant; conditions: Epilachna varivestis, 48-hour exposure, read-out: % Kill, Mexican Bean Beetle
# Excerpt: as §6, §7
# large milkweed bug = test: Seven-day residual insecticidal activity, milkweed bug; assay type: in vivo, Oncopeltus fasciatus (Dallas); conditions: Oncopeltus fasciatus, 48-hour exposure, read-out: % Kill, Milkweed Bug
# Excerpt: as §6, §7
# twospotted spider mite [11] = test: Seven-day residual insecticidal activity, twospotted spider mite; assay type: in vivo, Tetranychus urticae Koch; conditions: Tetranychus urticae, 48-hour exposure, read-out: % Kill, Twospotted Spider Mite
# Excerpt: as §6, §7
# house flies = test: Level I immersion test, house flies; assay type: in vivo, Musca domestica Linnaeus; conditions: HF, 5 mg/milliliter; for % Knockdown: 10 minutes after immersion; for mortality at 5000 µg/mL: Musca domestica, after 18-24 hours, read-out: % Kill
# Method: as §5
# Compounds of this invention were tested in a Level I test at 5 mg. of active compounds/milliliter of a solution of 40% acetone -- 60% water.
# In this test a group of ten house flies (Musca domestica Linnaeus) were completely immersed in 25 ml. of the insecticidal test solution. After 10 seconds of immersion, the test solution is removed. The house flies are then transferred to holding cages lines with paper toweling. In the case of the house flies, the knockdown counts were recorded 10 minutes after termination of the immersion. The percent kill was recorded after 18-24 hours.
# plum curculio [12] = test: Initial insecticidal activity, plum curculio; assay type: in vivo, Conotrachelus nenuphar (Herbst); conditions: Conotrachelus nenuphar, 48-hour exposure, read-out: % Kill, Plum Curculio
# Excerpt: as §1, §2
smiles,measurement,setting,value
"CCN(SN(C)C(=O)Oc1cccc2c1OC(C)(C)C2)P(=O)(OC)OC [5(c), 2,3-dihydro-2,2-dimethyl-7-benzofuranyl [(N-dimethoxyphosphinyl) (N-ethyl)aminosulfenyl][methyl]carbamate]",mortality at 39 ppm,confused flour beetle [1],0%
same,mortality at 156 ppm,confused flour beetle [1],0%
same,mortality at 1250 ppm,confused flour beetle [1],78%
same,mortality at 39 ppm,Mexican bean beetle [2],100%
same,mortality at 156 ppm,Mexican bean beetle [2],100%
same,mortality at 0.001 mg,German cockroaches,0%
same,% Knockdown,German cockroaches,0%
same,mortality at 39 ppm,confused flour beetle [3],0%
same,mortality at 156 ppm,confused flour beetle [3],0%
same,mortality at 1250 ppm,confused flour beetle [3],0%
same,mortality at 156 ppm,twospotted spider mite [4],0%
same,mortality at 1250 ppm,twospotted spider mite [4],38%
same,mortality at 39 ppm,Mexican bean beetle [5],78%
same,mortality at 156 ppm,Mexican bean beetle [5],100%
same,mortality at 1250 ppm,Mexican bean beetle [5],100%
same,mortality at 39 ppm,pea aphid [6],0%
same,mortality at 156 ppm,pea aphid [6],0%
same,mortality at 1250 ppm,pea aphid [6],62%
same,mortality at 39 ppm,plum curculio [7],0%
same,mortality at 156 ppm,plum curculio [7],0%
same,mortality at 1250 ppm,plum curculio [7],80%
same,mortality at 39 ppm,pea aphid [8],0%
same,mortality at 156 ppm,pea aphid [8],100%
same,mortality at 1250 ppm,pea aphid [8],100%
same,mortality at 39 ppm,pea aphid [9],0%
same,mortality at 156 ppm,pea aphid [9],100%
same,mortality at 39 ppm,Mexican bean beetle [10],6%
same,mortality at 156 ppm,Mexican bean beetle [10],70%
same,mortality at 1250 ppm,Mexican bean beetle [10],100%
same,mortality at 39 ppm,large milkweed bug,0%
same,mortality at 156 ppm,large milkweed bug,100%
same,mortality at 1250 ppm,large milkweed bug,100%
same,mortality at 39 ppm,twospotted spider mite [11],2%
same,mortality at 156 ppm,twospotted spider mite [11],0%
same,mortality at 1250 ppm,twospotted spider mite [11],2%
same,% Knockdown,house flies,100%
same,mortality at 5000 µg/mL,house flies,100%
same,mortality at 39 ppm,plum curculio [12],50%
same,mortality at 156 ppm,plum curculio [12],85%
same,mortality at 1250 ppm,plum curculio [12],100%
"CCOP(=O)(OCC)N(C)SN(C)C(=O)Oc1cccc2c1OC(C)(C)C2 [Example 1(c), 2,3-dihydro-2,2-dimethyl-7-benzofuranyl [(N-diethoxyphosphinyl) (N-methyl)-aminosulfenyl][methyl]carbamate]",mortality at 39 ppm,confused flour beetle [1],14%
same,mortality at 156 ppm,confused flour beetle [1],15%
same,mortality at 1250 ppm,confused flour beetle [1],33%
same,mortality at 39 ppm,Mexican bean beetle [2],100%
same,mortality at 156 ppm,Mexican bean beetle [2],95%
same,mortality at 0.001 mg,German cockroaches,0%
same,% Knockdown,German cockroaches,0%
same,mortality at 39 ppm,confused flour beetle [3],10%
same,mortality at 156 ppm,confused flour beetle [3],18%
same,mortality at 1250 ppm,confused flour beetle [3],23%
same,mortality at 39 ppm,twospotted spider mite [4]; 39 ppm,0%
same,mortality at 156 ppm,twospotted spider mite [4],0%
same,mortality at 1250 ppm,twospotted spider mite [4],72%
same,mortality at 39 ppm,Mexican bean beetle [5],100%
same,mortality at 156 ppm,Mexican bean beetle [5],100%
same,mortality at 1250 ppm,Mexican bean beetle [5],100%
same,mortality at 39 ppm,pea aphid [6],0%
same,mortality at 156 ppm,pea aphid [6],0%
same,mortality at 1250 ppm,pea aphid [6],100%
same,mortality at 39 ppm,plum curculio [7],0%
same,mortality at 156 ppm,plum curculio [7],22%
same,mortality at 1250 ppm,plum curculio [7],85%
same,mortality at 39 ppm,pea aphid [8],0%
same,mortality at 156 ppm,pea aphid [8],100%
same,mortality at 1250 ppm,pea aphid [8],100%
same,mortality at 39 ppm,pea aphid [9],100%
same,mortality at 156 ppm,pea aphid [9],100%
same,mortality at 39 ppm,Mexican bean beetle [10],38%
same,mortality at 156 ppm,Mexican bean beetle [10],89%
same,mortality at 1250 ppm,Mexican bean beetle [10],86%
same,mortality at 39 ppm,large milkweed bug,55%
same,mortality at 156 ppm,large milkweed bug,100%
same,mortality at 1250 ppm,large milkweed bug,100%
same,mortality at 39 ppm,twospotted spider mite [11],2%
same,mortality at 156 ppm,twospotted spider mite [11],1%
same,mortality at 1250 ppm,twospotted spider mite [11],9%
same,% Knockdown,house flies,100%
same,mortality at 5000 µg/mL,house flies,100%
same,mortality at 39 ppm,plum curculio [12],0%
same,mortality at 156 ppm,plum curculio [12],15%
same,mortality at 1250 ppm,plum curculio [12],100%
